Experimental data as given in patent publication US20240252508A1, “Novel glucose uptake inhibitors for use in the treatment of cancer” (NOVELYEAST BV, priority 2021, published 2024).

Experiments:
tps1Δ cells = experiment: Growth rescue of tps1Δ strain on glucose (growth curves, 2% galactose medium); type: cell-based, S. cerevisiae; conditions: 100 μM compound, 2.5 mM glucose
Summary of the method: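 tps1Δ yeast pregrown in Complete Synthetic medium with 2% galactose, washed, resuspended to OD 0.1; compounds added 10 min before glucose. Growth followed as OD595 every 30 min at 30 °C in at least three technical replicates.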

[1] = tested on: A549 lung adenocarcinoma cells; experiment: A549 cell proliferation / growth inhibition; type: cell-based, human; conditions: for Selected from primary screen for growth inhibition of A549 cells at 50 μM: 50 μM compound, 1 mM glucose; for Selected for having an IC50 ratio (10 mM glucose: 1 mM glucose) of A549 growth higher than WBC-A: IC50 on 10 mM vs 1 mM glucose, compared with WBC-A
Summary of the method: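 A549 growth screened in RPMI with 1 mM glucose, compounds at 50 μM; cell number from counts of Hoechst-stained nuclei after 3 days. Growth curves also followed by IncuCyte phase-contrast confluency over 3–5 days (1000–1500 cells/well), DMSO ≤0.1%, ≥4 technical repeats.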

c1ccc(-c2csc3ncnc(Sc4nnc5ccccn45)c23)cc1 [49A]
Rescue of the tps1Δ strain on 2.5 mM glucose at 100 μM (tps1Δ cells): No | Selected from primary screen for growth inhibition of A549 cells at 50 μM [1]: Yes | Selected for having an IC50 ratio (10 mM glucose: 1 mM glucose) of A549 growth higher than WBC-A [1]: Lower IC50 ratio

Cc1nc(SCC(=O)NC(=O)NCCC(C)C)c2c(-c3cccs3)csc2n1 [49B]
Rescue of the tps1Δ strain on 2.5 mM glucose at 100 μM (tps1Δ cells): No | Selected from primary screen for growth inhibition of A549 cells at 50 μM [1]: Yes | Selected for having an IC50 ratio (10 mM glucose: 1 mM glucose) of A549 growth higher than WBC-A [1]: Lower IC50 ratio

Cc1nc(SCC(N)=O)c2c3c(sc2n1)CCC3 [49C]
Rescue of the tps1Δ strain on 2.5 mM glucose at 100 μM (tps1Δ cells): No | Selected from primary screen for growth inhibition of A549 cells at 50 μM [1]: No

Cc1ccc(-c2csc3ncnc(Sc4ncccn4)c23)cc1 [50A]
Rescue of the tps1Δ strain on 2.5 mM glucose at 100 μM (tps1Δ cells): No | Selected from primary screen for growth inhibition of A549 cells at 50 μM [1]: No

CCCc1nnc(Sc2nc(C)nc3scc(-c4cccs4)c23)[nH]1 [50C]
Rescue of the tps1Δ strain on 2.5 mM glucose at 100 μM (tps1Δ cells): Yes | Selected from primary screen for growth inhibition of A549 cells at 50 μM [1]: Yes | Selected for having an IC50 ratio (10 mM glucose: 1 mM glucose) of A549 growth higher than WBC-A [1]: Lower IC50 ratio

CCn1c(Sc2nc(C)nc3scc(-c4cccs4)c23)n[nH]c1=O [51A]
Rescue of the tps1Δ strain on 2.5 mM glucose at 100 μM (tps1Δ cells): No | Selected from primary screen for growth inhibition of A549 cells at 50 μM [1]: Yes | Selected for having an IC50 ratio (10 mM glucose: 1 mM glucose) of A549 growth higher than WBC-A [1]: Lower IC50 ratio

Cc1nc(Sc2nnc3sc4ccccc4n23)c2c3c(sc2n1)CCCC3 [51C]
Rescue of the tps1Δ strain on 2.5 mM glucose at 100 μM (tps1Δ cells): No | Selected from primary screen for growth inhibition of A549 cells at 50 μM [1]: No

CCC(c1nnc(Sc2nc(C)nc3scc(-c4cccs4)c23)n1Cc1ccccc1)N(C)C (stereo not drawn) [52A]
Rescue of the tps1Δ strain on 2.5 mM glucose at 100 μM (tps1Δ cells): No | Selected from primary screen for growth inhibition of A549 cells at 50 μM [1]: Yes | Selected for having an IC50 ratio (10 mM glucose: 1 mM glucose) of A549 growth higher than WBC-A [1]: Lower IC50 ratio

Cc1nc(SCC(=O)N2CCOCC2)c2c3c(sc2n1)CCCC3 [52C]
Rescue of the tps1Δ strain on 2.5 mM glucose at 100 μM (tps1Δ cells): No | Selected from primary screen for growth inhibition of A549 cells at 50 μM [1]: No

COC(=O)CSc1nc(C)nc2scc(-c3cccs3)c12 [53A]
Rescue of the tps1Δ strain on 2.5 mM glucose at 100 μM (tps1Δ cells): Yes | Selected from primary screen for growth inhibition of A549 cells at 50 μM [1]: No

OCCCSc1ncnc2scc(-c3ccc(F)cc3)c12 [53C]
Rescue of the tps1Δ strain on 2.5 mM glucose at 100 μM (tps1Δ cells): No | Selected from primary screen for growth inhibition of A549 cells at 50 μM [1]: No

Cn1nnnc1Sc1nc(CN2CCOCC2)nc2scc(-c3cccs3)c12 [54A]
Rescue of the tps1Δ strain on 2.5 mM glucose at 100 μM (tps1Δ cells): No | Selected from primary screen for growth inhibition of A549 cells at 50 μM [1]: Yes | Selected for having an IC50 ratio (10 mM glucose: 1 mM glucose) of A549 growth higher than WBC-A [1]: Lower IC50 ratio

Cc1nc(Sc2nnc(C(F)(F)F)n2C)c2c(-c3cccs3)csc2n1 [54C]
Rescue of the tps1Δ strain on 2.5 mM glucose at 100 μM (tps1Δ cells): Yes | Selected from primary screen for growth inhibition of A549 cells at 50 μM [1]: Yes | Selected for having an IC50 ratio (10 mM glucose: 1 mM glucose) of A549 growth higher than WBC-A [1]: Lower IC50 ratio

c1csc(-c2csc3nc(CN4CCOCC4)nc(Sc4nnc[nH]4)c23)c1 [55A]
Rescue of the tps1Δ strain on 2.5 mM glucose at 100 μM (tps1Δ cells): Yes | Selected from primary screen for growth inhibition of A549 cells at 50 μM [1]: No

Cc1nc(Sc2nnnn2C2CC2)c2c(-c3ccccc3)csc2n1 [56A]
Rescue of the tps1Δ strain on 2.5 mM glucose at 100 μM (tps1Δ cells): No | Selected from primary screen for growth inhibition of A549 cells at 50 μM [1]: Yes | Selected for having an IC50 ratio (10 mM glucose: 1 mM glucose) of A549 growth higher than WBC-A [1]: Lower IC50 ratio

OCCSc1ncnc2scc(-c3ccc(F)cc3)c12 [56C]
Rescue of the tps1Δ strain on 2.5 mM glucose at 100 μM (tps1Δ cells): No | Selected from primary screen for growth inhibition of A549 cells at 50 μM [1]: No

Cc1ccc(-c2csc3ncnc(Sc4nnnn4C)c23)cc1 [57A]
Rescue of the tps1Δ strain on 2.5 mM glucose at 100 μM (tps1Δ cells): No | Selected from primary screen for growth inhibition of A549 cells at 50 μM [1]: Yes | Selected for having an IC50 ratio (10 mM glucose: 1 mM glucose) of A549 growth higher than WBC-A [1]: Lower IC50 ratio

Cc1nc(SCCO)c2c(C)c(C)sc2n1 [57C]
Rescue of the tps1Δ strain on 2.5 mM glucose at 100 μM (tps1Δ cells): No | Selected from primary screen for growth inhibition of A549 cells at 50 μM [1]: No

Cc1sc2ncnc(Sc3nnc4ccccn34)c2c1C [58A]
Rescue of the tps1Δ strain on 2.5 mM glucose at 100 μM (tps1Δ cells): No | Selected from primary screen for growth inhibition of A549 cells at 50 μM [1]: No

Cc1nc(Sc2nnc(C3CC3)n2C2CC2)c2c(-c3cccs3)csc2n1 [58C]
Rescue of the tps1Δ strain on 2.5 mM glucose at 100 μM (tps1Δ cells): No | Selected from primary screen for growth inhibition of A549 cells at 50 μM [1]: No

Cc1nc(Sc2nnc[nH]2)c2cc(-c3ccccc3)sc2n1 [59A]
Rescue of the tps1Δ strain on 2.5 mM glucose at 100 μM (tps1Δ cells): No | Selected from primary screen for growth inhibition of A549 cells at 50 μM [1]: No

CCOC(=O)c1sc2nc(C)nc(SCC(N)=O)c2c1C [59C]
Rescue of the tps1Δ strain on 2.5 mM glucose at 100 μM (tps1Δ cells): No | Selected from primary screen for growth inhibition of A549 cells at 50 μM [1]: No

c1ccn2c(Sc3ncnc4sc5c(c34)CCC5)nnc2c1 [60A]
Rescue of the tps1Δ strain on 2.5 mM glucose at 100 μM (tps1Δ cells): No | Selected from primary screen for growth inhibition of A549 cells at 50 μM [1]: No

O=C(CSc1ncnc2scc(-c3ccccc3)c12)N1CCOCC1 [60C]
Rescue of the tps1Δ strain on 2.5 mM glucose at 100 μM (tps1Δ cells): No | Selected from primary screen for growth inhibition of A549 cells at 50 μM [1]: No
